Data from patent US9067944B2, “Process for the preparation of anagrelide and analogues thereof” (SHIRE LLC, priority 2010, dated 2015).
Read-outs that look alike come from different tables or passages of the source.

How the values were obtained:
[1] = solubility of the tosylate salt; format: physicochemical; conditions: crystalline tosylate salt
[2] = solid form; cited from earlier work
[3] = radiolabeled base, humans; cited from earlier work
[4] = radiolabeled base, monkeys; cited from earlier work

Row | solubility [1] | SMILES | aqueous solubility [2] | absorption into blood plasma [3] | absorption into blood plasma [4]
1 | soluble | CC1(C)C(=O)NC2=Nc3ccc(Cl)c(Cl)c3CN21.Cc1ccc(S(=O)(=O)O)cc1 [3,3-dimethylanagrelide tosylate, 3,3-Dimethylanagrelide Tosylate] | – | – | –
2 | – | O=C1CN2Cc3c(ccc(Cl)c3Cl)N=C2N1 [compound III, 6,7-dichloro-1,5-dihydroimidazo[2,1-b]quinazolin 2 (3H)-one] | low | complete absorption | complete absorption
